Converted amounts (≈) assume the structure as drawn. “And” between values parts separate entries of the source, which are not always exact repeats. Equal entries are not always repeated. Where two headings read alike, the source gives them in different places.
Tests used:
S. pneumoniae = assay: Single dose azithromycin pediatric AOM trial, subjects with S. pneumoniae at baseline; format: in vivo, human; details: for patients cured at day 28: 30 mg/kg
Source text: Children six months to twelve years were enrolled if they had symptoms and signs of acute otitis media (“AOM”) for less than four weeks and middle ear effusion by acoustic reflectometry. Symptoms necessary for enrollment included ear pain or fullness, discharge from the external auditory canal, decreased hearing or fever. On physical examination they must have had one or more of the following: bulging or marked erythema of the tympanic membrane, loss of the normal light reflex or tympanic membrane landmarks, or impaired tympanic mobility on biphasic pneumatic otoscopy. The effusion was to be documented by acoustic reflectometry with an abnormal reading of 3 or higher.
Samples of middle ear fluid were obtained by tympanocentesis or, in the case of a perforated tympanic membrane, by swab. Middle ear fluid samples were obtained for culture at baseline. […] Children who vomited within thirty minutes of dosing were redosed.
Samples of middle ear fluid were split for storage at a central laboratory and cultured locally.
A phone contact occurred on study day 5 to assess for adverse events followed by visits on days 10 and 24–28, at which time detailed clinical assessments were made and adverse events were recorded. Definitions included clinical cure (complete resolution of all signs and symptoms of AOM); improvement (partial resolution of signs and symptoms); or failure (no change or worsening of signs and symptoms, or requirement for additional antibiotic therapy for AOM). Any patient considered to have failed therapy was to have a repeat tympanocentesis.
The primary endpoint of the trial was the investigator designated cure rate at Day 24–28 for which a 95% confidence interval was computed using the normal approximation to the binomial distribution. Other endpoints analyzed included the clinical response rate by baseline pathogen at Day 24–28, the overall clinical response at Day 10, the percentage of subjects with individual signs and symptoms, as well as findings from pneumatic otoscopy and acoustic reflectometry. Only Streptococcus pneumoniae, Moraxella catarrhalis and Haemophilus influenzae were considered baseline pathogens for the purposes of these analyses.
Not all strains are equally virulent and the growth rate and kinetics of infection may influence the outcome. In addition, H. influenzae has been a difficult organism to culture from the middle ear.

S. pneumoniae isolates = assay: Susceptibility (MIC) testing of trial S. pneumoniae isolates with PCR of resistance mechanism; format: cell-based, Streptococcus pneumoniae; details: Streptococcus pneumoniae
Source text: Samples of middle ear fluid were split for storage at a central laboratory and cultured locally. All pathogens isolated locally were subcultured and sent to a central laboratory for confirmation and susceptibility testing, performed by Kirby-Bauer disk-diffusion or MIC testing according to NCCLS standards.
Polymerase chain reaction (PCR) determination of resistance mechanisms in all the azithromycin-resistant pneumococci was done.
Cultures were taken for antimicrobial susceptibility testing and bacterial species were identified. Current NCCLS approved breakpoints for MICs and zone sizes were applied to all data irrespective of the breakpoint in use at the time of the study. The isolates from the clinical studies were sent to central laboratories for identification and susceptibility determination. The methods for agar diffusion disk tests are those recommended by NCCLS.
The susceptibility breakpoints for azithromycin were defined as follows: […]

[1] = Azithromycin serum pharmacokinetics in mice; format: in vivo, mouse; details: for Cmax / Tmax / AUC(0-t): female, CF-1, mouse, Serum PK, total dose 100 mg/kg oral; for AUC(0-t): read-out: AUC(0-tlast)
Description: Blood and pulmonary tissue samples were taken starting at 0.5 h post-dose and at predetermined intervals over a 96 h period. […] […] The lower limit of quantification (LLOQ) was 50 ng/ml. […] Interassay variability was <7%. Pharmacokinetic parameters were calculated using the non-compartmental method by WinNonlin 2.1 (Scientific Consulting, Inc.).

[2] = 33 mg/kg, 3 days of dosing, 33.3 mg/kg/dose
[3] = 1 day of dosing, 100 mg/kg/dose
[4] = 2 days of dosing, 50 mg/kg/dose

In the case of CC[C@H]1OC(=O)[C@H](C)[C@@H](O[C@H]2C[C@@](C)(OC)[C@@H](O)[C@H](C)O2)[C@H](C)[C@@H](O[C@@H]2O[C@H](C)C[C@H](N(C)C)[C@H]2O)[C@](C)(O)C[C@@H](C)CN(C)[C@H](C)[C@@H](O)[C@]1(C)O [Azithromycin, 9a-aza-9a-methyl-9-deoxo-9a-homoerythromycin A], the “clinical cure rate versus susceptible S. pneumoniae isolates” value (S. pneumoniae; MICs≦0.25 μg/ml) is reported as 92.5%, the strains clinically cured (S. pneumoniae; human, in vivo) is reported as 40% and the “patients cured at day 28” value (S. pneumoniae; human, in vivo) is reported as “two of these five”. For the same compound, the “Clinical cure at day 28, number of children” value (S. pneumoniae; nine children with penicillin resistant S. pneumoniae isolates (MIC≧2 μg/ml)) was 6, the “clinical cure rate versus resistant S. pneumoniae isolates” value (S. pneumoniae; resistant isolates) was 66.7% and the “patients cured at day 28” value (S. pneumoniae; seven patients with mef A isolates (MIC 8 μg/ml), single 30 mg/kg dose) was “Six of these seven and 6/7”. For the same compound, the MIC (S. pneumoniae isolates; macrolide-resistant S. pneumoniae isolates containing the erm B gene) was over 256 µg/mL, the MIC (S. pneumoniae isolates; macrolide-resistant S. pneumoniae isolates containing the mef A gene) was 8 µg/mL (≈ 10.7 µM) and the “Cmax, single dose vs. the same total dose administered over 3 days” value ([1]; better when administered as a single dose) was 3 fold. It also gave a Cmax [1, 2] of 980 ng/mL, a Tmax [1, 2] of 26 h and an AUC(0-t) [1, 2] of 19800 ng·h/mL. For the same compound, the Cmax [1, 3] was 2100 ng/mL, the Tmax [1, 3] was 2 h and the AUC(0-t) [1, 3] was 18800 ng·h/mL. It also gave a Cmax [1, 4] of 1300 ng/mL, a Tmax [1, 4] of 26 h and an AUC(0-t) [1, 4] of 15900 ng·h/mL.
